The values below come from patent publication US11326207B2, “Sequencing using non-natural nucleotides” (Ultima Genomics, Inc., priority 2017, dated 2022).

One assay has as its system Bst 2.0 DNA polymerase. Briefly: Homopolymer assays of nucleotide analogs (Example 10). It counts as biochemical. The protocol: A homopolymer assay was performed to investigate the effectiveness of E-dCTP and P-dUTP as nucleotide analogs of dCTP. 50 μl solutions containing a template nucleic acid molecule and primer and Bst 2.0 DNA polymerase are placed in a microplate reader and the fluorescence of the solution is measured in kinetic mode. A fluorescein attached to an oligonucleotide (indicated with a * in FIG. 7) was quenched in the substrate due to the proximity of complementary G bases. Addition of dCTP and/or dCTP analogs causes extension of the 3′ end of the primer, formation of double-stranded DNA, and unquenching of the fluorescein. The fluorescence increases with the addition of multiple nucleotides.
Additional homopolymer assays were performed according to the procedure outlined in Example 8 using different nucleotides and nucleotide analogs.
To test for dUTP or TTP incorporation, oligo 332 was used as a template and oligo 221L was used as a primer. To test for dCTP incorporation, oligo 333 was used as a template and oligo 221L was used as a primer. To test for dGTP incorporation, oligo 334 was used as a template and oligo 221L was used as a primer. To test for dATP incorporation, hairpin oligo 221 was used as both a primer and template.

For the next assay, the system named is Bst DNA polymerase v.2.0. The experiment in a line: Flow cytometry assay: tolerance of dye-labeled dUTP* compared to dUTP analogs (Example 7). It counts as biochemical. To be noted: for Tolerance: tolerance of dUTP* compared to the named dUTP^0. As to the method:
A solution of biotinylated template (2 microliters (μL) of 100 μM) and dye-labeled primer (4 μL of 100 μM) were combined in annealing buffer (40 μL; Tris (10 millimolar (mM)), EDTA (1 mM), NaCl (100 mM)). The resulting solution was heated to 95° C. and allowed to slowly cool to room temperature. A portion of this solution (8 μL) was mixed with streptavidin-labeled magnetic beads (4 μL of Invitrogen Dynabeads™ MyOne™ Streptavidin C1, 10 milligrams/milliliter (mg/mL); washed and eluant removed) and 2× bead wash buffer (8 μL; 10 mM Tris, pH 7.5, 1 mM EDTA, 2 M NaCl, 0.01% Triton X-100). After washing with TET solution (10 mM Tris, 1 mM EDTA, 0.05% Triton X-100) the beads were treated with Bst DNA polymerase v.2.0 (8 μL of 8 units (U)/μL; New England Biolabs) for five minutes. The excess enzyme was removed by washing with TET and the beads were suspended in 1×DNA polymerase buffer solution (20 mM Tris, pH 8, 10 mM NaCl, 2 mM MgCl2, 0.01% Triton X-100). The sequence of the biotinylated template was /52 Bio//iSp18/[…] […] (SEQ ID NO: 12), where “5” is indicative of the 5′-end of the oligo, 2-Bio indicates dual biotin, and iSP18 indicates a PEG spacer. […] […] (SEQ ID NO: 13), where “5” indicates the 5′-end of the oligo and JOE indicates a fluorescent dye attached to the oligo.
Next, a portion of the suspended magnetic beads (10 μL) were removed and placed in a PCR tube. A solution of nucleotides (10 μL) was added to the tube and the tube incubated for 40 seconds (s) at 50° C. The enzyme reaction was stopped with the addition of 5 μL of 50 mM EDTA. The beads were washed with 2×100 μL TET and resuspended in 20 μL TET. A portion of the bead solution (1 μL) was added to TE (200 μL) and the beads examined for red fluorescence on a flow cytometer (BD Accuri™, APC channel). The eluant of the remaining beads was removed and 40 μL of 95:5 formamide:10 mM EDTA was added to the beads. A portion of the formamide solution (1 μL) was added to 40 μL 95:5 formamide EDTA. The solutions were examined by capillary electrophoresis (CE) on an ABI 3730 instrument and the peaks identified and quantitated by peak height. The experimental protocol is summarized schematically in FIG. 2.
Tolerance was measured at two molar fractions, […] and 0.05, for each of the four dUTP analogs.
(In flow cytometry, cells or beads pass a laser one at a time.)

Another assay has as its system hairpin oligo. Briefly: Kinetic assay using hairpin oligos (Example 7). It is filed as biochemical. The protocol:
A kinetic assay using hairpin oligos was also performed to determine the rate of incorporate of an unnatural nucleotide and a natural nucleotide following the unnatural nucleotide. […] Incorporation of a T or U analog unquenched a fluorescein in the hairpin oligo. Following incorporation of the T or U analog, a mixture of C and A was added, which further unquenched the dye.

Another assay concerns DNA polymerase. To be noted: for peak height (red fluorescence on the gel): dUTP* only (Fr = 1.0) or dUTP*/named dUTP^0.
Where [1] appears, read: Natural Nucleotide C (dCTP = 1), template oligo 333, primer 221L.
The mark [2] stands for this setting: Natural Nucleotide T (TTP = 1), template oligo 332, primer 221L.
[3] abbreviates: Natural Nucleotide A (dATP = 1), hairpin oligo 221.
The mark [4] stands for this setting: Natural Nucleotide G (dGTP = 1), template oligo 334, primer 221L.

Like-named read-outs stand apart in the source and are kept apart here. Some results are limits rather than exact numbers.

For `Nc1nc(=O)n([C@H]2C[C@H](O)[C@@H](COP(=O)(O)OP(=O)(O)OP(=O)(O)O)O2)cc1Br` [5-Bromo-dCTP, 5-bromo-2′-deoxycytidine 5′triphosphate], the “Relative Rate in Homopolymer Assay” value in the assay with Bst 2.0 DNA polymerase (setting [1]) was above 1.
On to `O=c1[nH]c(=O)n([C@H]2C[C@H](O)[C@@H](COP(=O)(O)OP(=O)(O)OP(=O)(O)O)O2)cc1Br` [5-Bromo-dUTP, 5-bromo-2′-deoxyuridine 5′triphosphate], for which the “Relative Rate in Homopolymer Assay” value with Bst 2.0 DNA polymerase (setting [2]) was above 1.
The same measure, in the same setting: the figure for `O=c1[nH]c(=O)n([C@H]2C[C@H](O)[C@@H](COP(=O)(O)OP(=O)(O)OP(=O)(O)O)O2)cc1F` [5-Fluoro-dUTP, 5-fluoro-2′-deoxyuridine 5′triphosphate] is below 1.
For `Nc1nc(=O)n([C@H]2C[C@H](O)[C@@H](COP(=O)(O)OP(=O)(O)OP(=O)(O)O)O2)cc1O` [5-Hydroxy-dCTP, 5-hydroxy-2′-deoxycytidine 5′triphosphate], the “Relative Rate in Homopolymer Assay” value with Bst 2.0 DNA polymerase (setting [1]) is given as <<1.
For the molecule `Nc1nc(=O)n([C@H]2C[C@H](O)[C@@H](COP(=O)(O)OP(=O)(O)OP(=O)(O)O)O2)cc1CO` [5-Hydroxymethyl-dCTP, 5-ydroxymethyl-2′-deoxycytidine 5′triphosphate], the “Relative Rate in Homopolymer Assay” value with Bst 2.0 DNA polymerase (setting [1]) is given as <<1.
Take `O=c1[nH]c(=O)n([C@H]2C[C@H](O)[C@@H](COP(=O)(O)OP(=O)(O)OP(=O)(O)O)O2)cc1I` [5-Iodo-dUTP, 5-iodo-2′-deoxyuridine 5′triphosphate]: in the assay with Bst 2.0 DNA polymerase (setting [2]), the “Relative Rate in Homopolymer Assay” value is reported as above 1.
In the case of `Cc1cn([C@H]2C[C@H](O)[C@@H](COP(=O)(O)OP(=O)(O)OP(=O)(O)O)O2)c(=O)nc1N` [5-Methyl-dCTP, 5-methyl-2′-deoxycytidine 5′triphosphate], in the assay on Bst 2.0 DNA polymerase (setting [1]), the “Relative Rate in Homopolymer Assay” value is above 1.
As to `C#CCNc1cn([C@H]2C[C@H](O)[C@@H](COP(=O)(O)OP(=O)(O)OP(=O)(O)O)O2)c(=O)[nH]c1=O` [5-Propargylamino-dUTP, 5-proparylamino-2′-deoxyuridine 5′triphosphate], the “Relative Rate in Homopolymer Assay” value in the assay with Bst 2.0 DNA polymerase (setting [2]) was <<1.
For the molecule `Nc1nc(=O)n([C@H]2C[C@H](O)[C@@H](COP(=O)(O)OP(=O)(O)OP(=O)(O)O)O2)cc1C=O` [5-formyl-dCTP, 5-formyl-2′-deoxycytidine 5′triphosphate], the “Relative Rate in Homopolymer Assay” value in the assay on Bst 2.0 DNA polymerase (setting [1]) is recorded as <<1.
As for `Nc1ncnc2c1c(I)cn2[C@H]1C[C@H](O)[C@@H](COP(=O)(O)OP(=O)(O)OP(=O)(O)O)O1` [7-Iodo-7-deaza-dATP, 7-deaza-7-iodo-2′-deoxyadenosine-5′-triphosphate], in the assay on Bst 2.0 DNA polymerase (setting [3]), the “Relative Rate in Homopolymer Assay” value is listed as above 1.
Still for that read-out and setting: the result for `Nc1ncnc2c1ccn2[C@H]1C[C@H](O)[C@@H](COP(=O)(O)OP(=O)(O)OP(=O)(O)O)O1` [7-deaza-dATP, 7-deaza-2′-deoxyadenosine-5′-triphosphate] reads below 1.
With `Nc1nc2c(ccn2[C@H]2C[C@H](O)[C@@H](COP(=O)(O)OP(=O)(O)OP(=O)(O)O)O2)c(=O)[nH]1` [7-deaza-dGTP, 7-deaza-2′-deoxyguanosine-5′-triphosphate], the “Relative Rate in Homopolymer Assay” value in the assay on Bst 2.0 DNA polymerase (setting [4]) is on record as below 1.
`Nc1ncnc2c1nc(Br)n2[C@H]1C[C@H](O)[C@@H](COP(=O)(O)OP(=O)(O)OP(=O)(O)O)O1` [Bromo-dATP, bromo-deoxyadenosine triphosphate]: the “Relative Rate in Homopolymer Assay” value in the assay with Bst 2.0 DNA polymerase (setting [3]) is reported as above 1.
As for `CC#Cc1cn([C@H]2C[C@H](O)[C@@H](COP(=O)(O)OP(=O)(O)OP(=O)(O)O)O2)c(=O)[nH]c1=O` [P-dUTP, 5-propynyl-2′-deoxyuridine 5′triphosphate], the “performance as a substrate compared with TTP (in words)” value in the assay on Bst DNA polymerase v.2.0 (from tolerance for the labeled nucleotide at both molar fractions) is on record as “outperforms TTP as a substrate”. Moreover, the Apparent fraction in the assay on Bst DNA polymerase v.2.0 (molar fraction dUTP* 0.05) amounted to 0.032; with Bst DNA polymerase v.2.0 (molar fraction dUTP* 0.5), 0.32. Moreover, the Red signal is 1,600 with Bst DNA polymerase v.2.0 (molar fraction dUTP* 0.05, rest the named dUTP^0) and 16,000 in the assay with Bst DNA polymerase v.2.0 (molar fraction dUTP* 0.5, rest the named dUTP^0). Moreover, the Tolerance in the assay on Bst DNA polymerase v.2.0 (molar fraction dUTP* 0.05) and in the assay with Bst DNA polymerase v.2.0 (molar fraction dUTP* 0.5) was 0.6 throughout. Further, the “incorporation of dCTP and dATP after the dUTP analog” value with hairpin oligo (mixture of C and A added after T or U analog) was “rapid”. Further, in the assay on hairpin oligo (unquenching of fluorescein in hairpin oligo), the “initial incorporation of dUTP analog” value is reported as “rapid”. For the same molecule, the “Relative Rate in Homopolymer Assay” value with Bst 2.0 DNA polymerase (setting [2]) is on record as above 1. The “Norm. (ratio of peak height dUTP*/dUTP^0 to Fr=1.0)” value is 1.3 with DNA polymerase (Peak 1); 1.4 in the assay on DNA polymerase (Peak 2); 1.0 with DNA polymerase (Peak 3); 1.1 in the assay on DNA polymerase (Peak 4); 1.4 with DNA polymerase (Peak 5). The “peak height (red fluorescence on the gel)” value in the assay with DNA polymerase (Peak 1 (primer)) is reported as 55; with DNA polymerase (Peak 2 (primer)) it was 54; in the assay on DNA polymerase (Peak 3 (primer)) it was 27; in the assay with DNA polymerase (Peak 4 (primer)), 36; with DNA polymerase (Peak 5 (primer)), 32. In addition, the “context C=(Maximum signal−minimum signal)/(average signal)” value in the assay with DNA polymerase (five primers, gel assay with dUTP*) is listed as 0.32.
Take `Nc1ncnc2c1ncn2[C@H]1C[C@H](O)[C@@H](COP(=O)(O)OP(=O)(O)OP(=O)(O)O)O1` [dATP, deoxyadenosine triphosphate, reference compound]: the “Relative Rate in Homopolymer Assay” value in the assay on Bst 2.0 DNA polymerase (setting [3]) was found to be 1.
With `Nc1nc2c(ncn2[C@H]2C[C@H](O)[C@@H](COP(=O)(O)OP(=O)(O)OP(=O)(O)O)O2)c(=O)[nH]1` [dGTP, deoxyguanosine triphosphate, reference compound], the “Relative Rate in Homopolymer Assay” value in the assay with Bst 2.0 DNA polymerase (setting [4]) stood at 1.
Turning to “iodo-2′-deoxyguanosine-5′-triphosphate [Iodo-dGTP]”, the “Relative Rate in Homopolymer Assay” value in the assay with Bst 2.0 DNA polymerase (setting [4]) is listed as above 1.
